Key:
Assay in all cases: relative viability (nuclei count vs DMSO), 5 days (fraction); higher = more cells survive
Everolimus + Luminespib = compound: CO[C@H]1C[C@@H]2CC[C@@H](C)[C@@](O)(O2)C(=O)C(=O)N2CCCC[C@H]2C(=O)O[C@H]([C@H](C)C[C@@H]2CC[C@@H](OCCO)[C@H](OC)C2)CC(=O)[C@H](C)/C=C(\C)[C@@H](O)[C@@H](OC)C(=O)[C@H](C)C[C@H](C)/C=C/C=C/C=C/1C [Everolimus] + CCNC(=O)c1noc(-c2cc(C(C)C)c(O)cc2O)c1-c1ccc(CN2CCOCC2)cc1 [Luminespib] (partner 0.01 µM)
How it was run: (§1)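 The day after seeding in 1536-well plates, lung cancer cell lines were treated by pin tool with a single drug, or with a fixed anchor-drug dose together with five library-drug doses (not always all listed) in √10 steps. After 5 days, a combined fix-and-stain solution (final 0.05% Triton X-100, 1% formaldehyde, 1 ug/ml Hoechst) was added. Nuclei counted on 4× images gave relative viability as treated counts over vehicle counts, reported as the median of duplicate plates.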

Everolimus + Foretinib = compound: CO[C@H]1C[C@@H]2CC[C@@H](C)[C@@](O)(O2)C(=O)C(=O)N2CCCC[C@H]2C(=O)O[C@H]([C@H](C)C[C@@H]2CC[C@@H](OCCO)[C@H](OC)C2)CC(=O)[C@H](C)/C=C(\C)[C@@H](O)[C@@H](OC)C(=O)[C@H](C)C[C@H](C)/C=C/C=C/C=C/1C [Everolimus] + COc1cc2c(Oc3ccc(NC(=O)C4(C(=O)Nc5ccc(F)cc5)CC4)cc3F)ccnc2cc1OCCCN1CCOCC1 [Foretinib] (partner 0.25 µM)
How it was run: as §1

Everolimus + Tozasertib = compound: CO[C@H]1C[C@@H]2CC[C@@H](C)[C@@](O)(O2)C(=O)C(=O)N2CCCC[C@H]2C(=O)O[C@H]([C@H](C)C[C@@H]2CC[C@@H](OCCO)[C@H](OC)C2)CC(=O)[C@H](C)/C=C(\C)[C@@H](O)[C@@H](OC)C(=O)[C@H](C)C[C@H](C)/C=C/C=C/C=C/1C [Everolimus] + Cc1cc(Nc2cc(N3CCN(C)CC3)nc(Sc3ccc(NC(=O)C4CC4)cc3)n2)n[nH]1 [Tozasertib] (partner 0.1 µM)
How it was run: as §1

Everolimus + AZD7762 = compound: CO[C@H]1C[C@@H]2CC[C@@H](C)[C@@](O)(O2)C(=O)C(=O)N2CCCC[C@H]2C(=O)O[C@H]([C@H](C)C[C@@H]2CC[C@@H](OCCO)[C@H](OC)C2)CC(=O)[C@H](C)/C=C(\C)[C@@H](O)[C@@H](OC)C(=O)[C@H](C)C[C@H](C)/C=C/C=C/C=C/1C [Everolimus] + NC(=O)Nc1cc(-c2cccc(F)c2)sc1C(=O)N[C@H]1CCCNC1 [AZD7762] (partner 0.2 µM)
How it was run: as §1

Row | Cell Line | relative viability (Everolimus + Luminespib; first compound 0.01 µM) | relative viability (Everolimus + Luminespib; first compound 0.03162 µM) | relative viability (Everolimus + Luminespib; first compound 0.1 µM) | relative viability (Everolimus + Luminespib; first compound 0.3162 µM) | relative viability (Everolimus + Luminespib; first compound 1 µM) | relative viability (Everolimus + Foretinib; first compound 0.01 µM) | relative viability (Everolimus + Foretinib; first compound 0.03162 µM) | relative viability (Everolimus + Foretinib; first compound 0.1 µM) | relative viability (Everolimus + Foretinib; first compound 0.3162 µM) | relative viability (Everolimus + Foretinib; first compound 1 µM) | relative viability (Everolimus + Tozasertib; first compound 0.01 µM) | relative viability (Everolimus + Tozasertib; first compound 0.03162 µM) | relative viability (Everolimus + Tozasertib; first compound 0.1 µM) | relative viability (Everolimus + Tozasertib; first compound 0.3162 µM) | relative viability (Everolimus + Tozasertib; first compound 1 µM) | relative viability (Everolimus + AZD7762; first compound 0.01 µM) | relative viability (Everolimus + AZD7762; first compound 0.03162 µM) | relative viability (Everolimus + AZD7762; first compound 0.1 µM) | relative viability (Everolimus + AZD7762; first compound 0.3162 µM) | relative viability (Everolimus + AZD7762; first compound 1 µM)
1 | LC-2-ad | 1.17 | 1.05 | 0.832 | 1.08 | 0.892 | 0.741 | 0.659 | 0.703 | 0.674 | 0.693 | 0.434 | 0.384 | 0.385 | 0.423 | 0.343 | 0.802 | 0.85 | 0.775 | 0.79 | 0.83
2 | LCLC-97TM1 | 0.76 | 0.743 | 0.549 | 0.581 | 0.769 | 0.833 | 0.562 | 0.915 | 0.904 | 0.862 | 0.189 | 0.216 | 0.181 | 0.196 | 0.171 | 0.273 | 0.145 | 0.189 | 0.221 | 0.148
3 | LCLC-103H | 0.839 | 0.819 | 0.689 | 0.741 | 0.733 | 0.597 | 0.572 | 0.522 | 0.545 | 0.574 | 0.459 | 0.451 | 0.4 | 0.446 | 0.322 | 0.561 | 0.671 | 0.629 | 0.673 | 0.608
4 | LK-2 | 0.179 | – | 0.171 | 0.177 | 0.189 | 0.638 | – | 0.583 | 0.656 | 0.679 | 0.165 | – | 0.179 | 0.17 | 0.17 | 0.213 | 0.197 | 0.173 | 0.186 | 0.208
5 | LOU-NH91 | 0.284 | 0.307 | 0.317 | 0.321 | 0.314 | 0.853 | 0.793 | 0.712 | 0.746 | 0.691 | 0.637 | 0.608 | 0.63 | 0.609 | 0.656 | 0.651 | 0.654 | 0.621 | 0.645 | 0.647
6 | LU99A | 0.226 | 0.204 | 0.185 | 0.191 | 0.253 | 0.52 | 0.565 | 0.525 | 0.519 | 0.605 | 0.23 | 0.282 | 0.252 | 0.222 | 0.263 | 0.213 | 0.279 | 0.213 | 0.246 | 0.33
7 | LXF-289 | 0.59 | 0.512 | 0.582 | 0.641 | 0.66 | 1.03 | 1 | 0.936 | 0.99 | 1 | 0.217 | 0.217 | 0.162 | 0.205 | 0.193 | 1.18 | 1.28 | 1.17 | 1.12 | 1.24
8 | NCI-H23 | 0.211 | 0.2 | 0.21 | 0.232 | 0.218 | 0.751 | 0.654 | 0.527 | 0.529 | 0.517 | 0.396 | 0.295 | 0.299 | 0.358 | 0.217 | 0.144 | 0.185 | 0.218 | 0.219 | 0.175
9 | NCI-H322M | 0.579 | 0.568 | 0.387 | 0.554 | 0.543 | 0.695 | 0.655 | 0.666 | 0.78 | 0.73 | 0.416 | 0.355 | 0.397 | 0.421 | 0.426 | 0.473 | 0.39 | 0.481 | 0.397 | 0.43
10 | NCI-H358 | 0.325 | 0.237 | 0.196 | 0.214 | 0.206 | 0.432 | 0.45 | 0.496 | 0.388 | 0.432 | 0.0999 | 0.106 | 0.0871 | 0.101 | 0.0971 | 0.358 | 0.361 | 0.396 | 0.18 | 0.325
11 | NCI-H441 | 0.272 | 0.267 | 0.223 | 0.271 | 0.234 | 0.972 | 0.863 | 0.726 | 0.833 | 0.659 | 0.521 | 0.643 | 0.636 | 0.555 | 0.54 | 0.97 | 1.17 | 0.717 | 0.953 | 1.01
12 | NCI-H460 | 0.0198 | 0.0198 | 0.0232 | 0.0224 | 0.0194 | 1.01 | 1.01 | 0.969 | 0.942 | 1.11 | 0.719 | 0.698 | 0.603 | 0.538 | 0.569 | 0.669 | 0.658 | 0.657 | 0.465 | 0.431
13 | NCI-H596 | 0.636 | 0.5 | 0.379 | 0.533 | 0.519 | 0.435 | 0.494 | 0.512 | 0.442 | 0.477 | 0.528 | 0.548 | 0.485 | 0.455 | 0.478 | 0.945 | 0.726 | 0.609 | 0.665 | 0.674
14 | NCI-H647 | 0.11 | 0.143 | 0.111 | 0.107 | 0.142 | 0.957 | 0.697 | 0.646 | 0.776 | 0.612 | 0.28 | 0.281 | 0.198 | 0.344 | 0.14 | 0.249 | 0.273 | 0.237 | 0.207 | 0.364
15 | NCI-H650 | 0.858 | – | 0.511 | 0.609 | 0.345 | 1.01 | – | 0.842 | 0.816 | 0.649 | 0.738 | – | 0.604 | 0.589 | 0.45 | 0.711 | 0.737 | 0.755 | 0.531 | 0.69

Source: the supplement of paper PMC10307832
